Where “and” joins values, the source holds several entries; their conditions need not be identical. Equal entries are not always repeated. Records with an inconclusive call do not appear.
Test system: MX-1 breast xenograft, nude mice, tumor weight T/C
Test: NCI In Vivo Anticancer Drug Screen. Data for tumor model Human Mammary Carcinoma MX-1 Xenograft (intrarenal inoculation) in NU/NU Swiss (nude) mice
Details: endpoint: mean tumor weight change, higher = larger tumour
Summary of the method: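 Tumor-bearing mice were treated with test compound alongside a vehicle-treated control group. Survival or tumor size was measured, and activity is expressed as the treated-group value divided by the control-group value.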

[1] = dose: 12.5 mg/kg/injection, schedule: Q01DX010 (sc), vehicle: saline with Tween-80
[2] = dose: 600.0 mg/kg/injection, schedule: Q04DX003 (sc), vehicle: Klucel (hydroxypropylcellulose) (HPC)
[3] = dose: 50.0 mg/kg/injection, schedule: Q01DX010 (sc), vehicle: Klucel (hydroxypropylcellulose) (HPC)
[4] = dose: 100.0 mg/kg/injection, schedule: Q01DX010 (sc), vehicle: Klucel (hydroxypropylcellulose) (HPC)
[5] = dose: 400.0 mg/kg/injection, schedule: Q01DX010 (sc), vehicle: Klucel (hydroxypropylcellulose) (HPC)

c1ccc2c(NCCCCCCCCNc3c4ccccc4nc4ccccc34)c3ccccc3nc2c1 was tested, and the T/C (dose: 10.0 mg/kg/injection, schedule: Q01DX010 (sc), vehicle: Klucel (hydroxypropylcellulose) (HPC)) was 93 % of control, the T/C (dose: 20.0 mg/kg/injection, schedule: Q01DX010 (sc), vehicle: Klucel (hydroxypropylcellulose) (HPC)) was 16 % of control and the T/C (dose: 40.0 mg/kg/injection, schedule: Q01DX010 (sc), vehicle: Klucel (hydroxypropylcellulose) (HPC)) was 93 % of control. The T/C (dose: 80.0 mg/kg/injection, schedule: Q01DX010 (sc), vehicle: Klucel (hydroxypropylcellulose) (HPC)) was 58 % of control.

In the case of O=C1C(=O)c2cccnc2-c2ncccc21, the T/C (dose: 20.0 mg/kg/injection, schedule: Q04DX003 (sc), vehicle: Klucel (hydroxypropylcellulose) (HPC)) is reported as 60 % of control.

CC1CN1C(=O)NCCCCCCNC(=O)N1CC1C (stereo not given) was tested, and the T/C (dose: 5.0 mg/kg/injection, schedule: Q04DX003 (sc), vehicle: Klucel (hydroxypropylcellulose) (HPC)) was 21 % of control and the T/C (dose: 40.0 mg/kg/injection, schedule: Q04DX003 (sc), vehicle: Klucel (hydroxypropylcellulose) (HPC)) was -86 % of control and -63 % of control.

For O=NN(CCCl)C(=O)NC1CCC(=O)NC1=O (stereo not given), the T/C (dose: 1.56 mg/kg/injection, schedule: Q01DX010 (sc), vehicle: saline with Tween-80) was 100 % of control, the T/C (dose: 3.13 mg/kg/injection, schedule: Q01DX010 (sc), vehicle: saline with Tween-80) was 69 % of control and 72 % of control and the T/C (dose: 6.25 mg/kg/injection, schedule: Q01DX010 (sc), vehicle: saline with Tween-80) was 2 % of control and 15 % of control and 25 % of control. The T/C [1] was -87 % of control and -84 % of control.

With CCC(C)Nc1ccc(N)cc1 (stereo not given) the T/C (dose: 4.5 mg/kg/injection, schedule: Q04DX003 (sc), vehicle: Klucel (hydroxypropylcellulose) (HPC)) was 50 % of control and the T/C (dose: 18.0 mg/kg/injection, schedule: Q04DX003 (sc), vehicle: Klucel (hydroxypropylcellulose) (HPC)) was 76 % of control.

With Oc1ccc(O)cc1 the T/C (dose: 25.0 mg/kg/injection, schedule: Q04DX003 (sc), vehicle: saline) was 81 % of control, the T/C (dose: 50.0 mg/kg/injection, schedule: Q04DX003 (sc), vehicle: saline) was 71 % of control and the T/C (dose: 100.0 mg/kg/injection, schedule: Q04DX003 (sc), vehicle: saline) was 75 % of control.

For COc1cc2cc[n+](C)c(Cc3ccccc3)c2cc1OC, the T/C (dose: 18.75 mg/kg/injection, schedule: Q04DX003 (sc), vehicle: Klucel (hydroxypropylcellulose) (HPC)) was 90 % of control, the T/C (dose: 37.5 mg/kg/injection, schedule: Q04DX003 (sc), vehicle: Klucel (hydroxypropylcellulose) (HPC)) was 115 % of control and the T/C (dose: 75.0 mg/kg/injection, schedule: Q04DX003 (sc), vehicle: Klucel (hydroxypropylcellulose) (HPC)) was 58 % of control.

For O=P1(N(CCCl)CCCl)NCCCO1 (stereo not given), the T/C (dose: 6.25 mg/kg/injection, schedule: Q01DX010 (ip), vehicle: saline) was 82 % of control, the T/C (dose: 6.25 mg/kg/injection, schedule: Q01DX010 (sc), vehicle: saline) was 56 % of control and the T/C (dose: 12.5 mg/kg/injection, schedule: Q01DX010 (ip), vehicle: saline) was -29 % of control. The T/C (dose: 20.8 mg/kg/injection, schedule: Q04DX003 (ip), vehicle: saline) was 8 % of control, the T/C (dose: 25.0 mg/kg/injection, schedule: Q01DX010 (ip), vehicle: saline) was -83 % of control and the T/C (dose: 25.0 mg/kg/injection, schedule: Q01DX010 (sc), vehicle: saline) was -65 % of control and -47 % of control. For the same molecule, the T/C (dose: 41.66 mg/kg/injection, schedule: Q04DX003 (ip), vehicle: saline) was -6 % of control, the T/C (dose: 41.66 mg/kg/injection, schedule: Q04DX003 (sc), vehicle: saline) was -53 % of control and the T/C (dose: 50.0 mg/kg/injection, schedule: Q01DX010 (sc), vehicle: saline) was -93 % of control.

With Cc1cc(N2C(=O)CCSC2=S)ccc1Cl the T/C (dose: 150.0 mg/kg/injection, schedule: Q04DX003 (sc), vehicle: Klucel (hydroxypropylcellulose) (HPC)) was 169 % of control, the T/C (dose: 300.0 mg/kg/injection, schedule: Q04DX003 (sc), vehicle: Klucel (hydroxypropylcellulose) (HPC)) was 90 % of control and the T/C [2] was 63 % of control. For the same molecule, the T/C (dose: 1200.0 mg/kg/injection, schedule: Q04DX003 (sc), vehicle: Klucel (hydroxypropylcellulose) (HPC)) was 96 % of control.

With C=C(NC(=O)C(=C)NC(=O)c1csc(C2=NC3c4csc(n4)C4NC(=O)c5csc(n5)C(C(C)(O)C(C)O)NC(=O)C5CSC(=N5)/C(=C/C)NC(=O)C(C(C)O)NC(=O)c5csc(n5)C3(CC2)NC(=O)C(C)NC(=O)C(=C)NC(=O)C(=C)NC(=O)C(C(C)C)NC2C=Cc3c(C(C)O)cc(nc3C2O)C(=O)OC4C)n1)C(N)=O (stereo not given) the T/C (dose: 187.5 mg/kg/injection, schedule: Q04DX003 (sc), vehicle: suspension in saline) was 123 % of control, the T/C (dose: 375.0 mg/kg/injection, schedule: Q04DX003 (sc), vehicle: suspension in saline) was 98 % of control and the T/C (dose: 750.0 mg/kg/injection, schedule: Q04DX003 (sc), vehicle: suspension in saline) was 105 % of control. The T/C (dose: 1500.0 mg/kg/injection, schedule: Q04DX003 (sc), vehicle: suspension in saline) was 152 % of control.

With CNc1nc(N(C)C)nc(N(C)C)n1 the T/C (dose: 12.5 mg/kg/injection, schedule: Q04DX003 (sc), vehicle: water) was 59 % of control, the T/C (dose: 25.0 mg/kg/injection, schedule: Q04DX003 (sc), vehicle: water) was 60 % of control and the T/C (dose: 30.0 mg/kg/injection, schedule: Q01DX010 (sc), vehicle: water) was 24 % of control. The T/C (dose: 50.0 mg/kg/injection, schedule: Q04DX003 (sc), vehicle: water) was 34 % of control, the T/C (dose: 60.0 mg/kg/injection, schedule: Q01DX010 (sc), vehicle: water) was 3 % of control and the T/C (dose: 100.0 mg/kg/injection, schedule: Q04DX003 (sc), vehicle: water) was 10 % of control. The T/C (dose: 120.0 mg/kg/injection, schedule: Q01DX010 (sc), vehicle: water) was -63 % of control.

Cc1cc(NCCCCCCCNc2cc(C)nc3cc(N)ccc23)c2ccc(N)cc2n1 was tested, and the T/C [1] was 53 % of control and 56 % of control and 72 % of control.

In the case of ClC(Cl)(Cl)C1=NCc2nnn(Cc3ccccc3)c2N1, the T/C (dose: 300.0 mg/kg/injection, schedule: Q04DX003 (sc), vehicle: saline with Tween-80) is reported as 92 % of control, the T/C (dose: 600.0 mg/kg/injection, schedule: Q04DX003 (sc), vehicle: saline with Tween-80) is reported as 61 % of control and the T/C (dose: 1200.0 mg/kg/injection, schedule: Q04DX003 (sc), vehicle: saline with Tween-80) is reported as 66 % of control. The T/C (dose: 2400.0 mg/kg/injection, schedule: Q04DX003 (sc), vehicle: saline with Tween-80) was 101 % of control.

For c1ccc([C@H]2CN3CCSC3=N2)cc1, the T/C (dose: 15.0 mg/kg/injection, schedule: Q04DX003 (sc), vehicle: saline) was 80 % of control, the T/C (dose: 30.0 mg/kg/injection, schedule: Q04DX003 (sc), vehicle: saline) was 71 % of control and the T/C (dose: 60.0 mg/kg/injection, schedule: Q04DX003 (sc), vehicle: saline) was 75 % of control.

O=S(=O)(O)O.[NH-]C1CCCCC1[NH-].[Pt+2] (stereo not given) was tested, and the T/C (dose: 0.63 mg/kg/injection, schedule: Q01DX010 (sc), vehicle: dextrose) was 95 % of control and 111 % of control and 115 % of control and the T/C (dose: 2.5 mg/kg/injection, schedule: Q01DX010 (sc), vehicle: dextrose) was 10 % of control and 12 % of control.

For Cc1cc(NS(=O)(=O)c2ccc(N=Nc3cc(N=Nc4ccc(S(=O)(=O)Nc5cc(C)nc(C)n5)cc4)c4c(NC(=O)C(Cl)Cl)cccc4c3OC(=O)C(Cl)Cl)cc2)nc(C)n1 (tested in a mixture with another compound), the T/C (dose: 2400.0 mg/kg/injection, schedule: Q04DX003 (sc), vehicle: suspension in saline) was 112 % of control.

COc1cc(OC)c(NC(=O)ON2C(=O)c3ccccc3C2=O)cc1Cl was tested, and the T/C (dose: 50.0 mg/kg/injection, schedule: Q04DX003 (sc), vehicle: saline with Tween-80) was 95 % of control, the T/C (dose: 100.0 mg/kg/injection, schedule: Q04DX003 (sc), vehicle: saline with Tween-80) was 103 % of control and the T/C (dose: 200.0 mg/kg/injection, schedule: Q04DX003 (sc), vehicle: saline with Tween-80) was 85 % of control. The T/C (dose: 400.0 mg/kg/injection, schedule: Q04DX003 (sc), vehicle: saline with Tween-80) was 114 % of control.

CCCCCCCC(=O)N/N=C(\CO)[C@]1(O)Cc2c(O)c3c(c(O)c2[C@@H](OC2CC(N)C(O)C(C)O2)C1)C(=O)c1c(OC)cccc1C3=O (stereo not given in full) was tested, and the T/C (dose: 25.0 mg/kg/injection, schedule: Q01DX010 (sc), vehicle: water) was 227 % of control, the T/C (dose: 50.0 mg/kg/injection, schedule: Q01DX010 (sc), vehicle: water) was 230 % of control and the T/C (dose: 100.0 mg/kg/injection, schedule: Q01DX010 (sc), vehicle: water) was 370 % of control.

In the case of O=[N+]([O-])/C=C\c1ccc2c(c1)OCO2, the T/C [3] is reported as 214 % of control, the T/C [4] is reported as 91 % of control and the T/C [5] is reported as 86 % of control.

O=Cc1ccc(C=O)c(Cl)c1 was tested, and the T/C [2] was 77 % of control and the T/C (dose: 2400.0 mg/kg/injection, schedule: Q04DX003 (sc), vehicle: Klucel (hydroxypropylcellulose) (HPC)) was 120 % of control.

With Cc1ccc2c(ccc(CC(=S)[S-])[n+]2C)c1 the T/C [3] was 57 % of control, the T/C [4] was 80 % of control and the T/C (dose: 200.0 mg/kg/injection, schedule: Q01DX010 (sc), vehicle: Klucel (hydroxypropylcellulose) (HPC)) was 28 % of control. For the same molecule, the T/C [5] was 107 % of control.

From PubChem BioAssay AID296 (DTP/NCI, 2004)
